Read-outs that look alike come from different tables or passages of the source.
How the values were obtained:
stomach cancer = stomach cancer in Japan, Antibiotics Chemother., Vol. 24, pages 149-159 (1978); cited from earlier work
[1] = system: CX-1 (human colon carcinoma); assay: Clonogenic in vitro study, inhibition of cell colony formation, CX-1; format: cell-based; details: for Selectivity / S (selectivity value): CV-1 IC50 divided by CX-1 IC50; for IC50: Homo sapiens, Colon carcinoma cell, read-out: CX-1 (colon carcinoma cells IC50 value); for S (selectivity value): comparative examples
Description: This IC50 value is compared for both the CX-1 and CV-1. That is, the CV-1 value is divided by the value for CX-1. If the value is 10 μg/ml for CV-1, and […] for CX-1, then the dye is 10 times as effective in killing off the colon carcinoma cells, compared to the monkey epithelial cells. This is expressed as a selectivity "S" of 10. That is, in order to inhibit 50% of the normal cells, the drug requires ten times the concentration needed for inhibiting 50% of the cancer cells.

[2] = system: CV-1 (normal monkey kidney epithelial cells); assay: Clonogenic in vitro study, inhibition of cell colony formation, CV-1; format: cell-based; details: for IC50: Primates, Epithelial cell
Source text: As noted above, one of the advantages of the invention is that the thiapyryliums described herein selectively attack the cancer cells as opposed to normal cells. Although knowledge of the mechanism is not essential to the practice of the invention, it is believed this occurs through the preferential inhibition of ATP synthesis in the mitochondria of the cancer cells. Such selectivity is further shown in clonogenic in vitro studies carried out in conventional fashion. That is, cell cultures of CX-1 (human colon carcinoma) and CV-1 (normal monkey kidney epithelial cells) are prepared and treated at various concentrations, in the conventional manner, and the concentration of the dye that inhibits 50% of the cell colonies formation is denoted as IC50. This IC50 value is compared for both the CX-1 and CV-1. That is, the CV-1 value is divided by the value for CX-1. If the value is 10 μg/ml for CV-1, and […] for CX-1, then the dye is 10 times as effective in killing off the colon carcinoma cells, compared to the monkey epithelial cells. This is expressed as a selectivity "S" of 10. That is, in order to inhibit 50% of the normal cells, the drug requires ten times the concentration needed for inhibiting 50% of the cancer cells.
("Retest" in this table refers to a repeat of the clonogenic test on either an entirely different preparation of the compound, or on a different recrystallization of the same preparation. The slight variance in selectivity can be accounted for, it is speculated, by a different moisture content in the preparation or crystallization of the compounds.)

[3] = system: human melanoma cell line, LOX; assay: Melanoma test using nude mice protocol (LOX xenograft survival); format: in vivo, human melanoma cells in athymic Swiss nu/nu mice; details: male nude mice, 5 mg/kg IP daily for five days, then three times per week
Source text: (§1) FIGS. 1-6 are survival plots of cancer-bearing mice treated with the dyes of this invention, compared to a control group of such mice that were untreated. In these plots, "% survival" means the % of the total group (treated "T" or control "C") still surviving on the day in question. The 50% data point is selected for the T/C calculation, as being the point that is statistically meaningful.
(§2) Effectiveness against human cancer can be inferred by tests in the nude mouse-human xenograft model, hereinafter "nude mice protocol". […] 899-903, especially p. 889 (April 1985).
(§3) Nude mice, that is, those deficient in thymic functions, bred and maintained in pathogen-free conditions [See J. Natl. Cancer Inst. 51: 615-619 (1973)] were used in in vivo experiments. For each experiment, nude mice from the same litter and of the same sex which were over 3 months old and weighed at least 25 g were injected or implanted with cancer cells.
A human melanoma cell line, LOX, was used that grows rapidly when inoculated into the peritoneal cavity of athymic mice. […] Cells were then scored for viability with trypan blue and 5 million viable cells made up in 0.1 ml of Dulbecco modified Eagles' medium (DME) were injected intraperitoneally into a group of male athymic Swiss nu/nu mice. […]

[4] = system: human ovarian carcinoma line OVCAR-3; assay: Ovarian carcinoma (OVCAR-3) using nude mice protocol (survival); format: in vivo, human ovarian carcinoma cells in nude mice; details: OVCAR-3, female nude mice, 5 mg/kg IP daily for five days, then twice weekly
Source text: as §1, §2, §3
Ex. 1 and 2 were repeated, except they were administered to female nude mice xenografted with human ovarian carcinoma line OVCAR-3. Ten mice were selected for treatment with the thiapyrylium, in an amount of 5 mg/kg administered IP 1 day after the cancer cells were injected. This was repeated as follows: daily for five days followed by twice weekly (usually on Tuesday and Thursday). Ten mice were used as the control group and were injected with 0.25 ml of 5% dextrose in water.

MB49 tumor cells = assay: Treatment of mouse bladder carcinoma (MB49) using thiapyrylium dyes administered IP (survival); format: in vivo; details: MB49, male BDF1 mice, 2 mg/kg IP daily for 5 days, then twice a week
Source text: as §1
MB49 tumor cells, that is, mouse carcinoma cells induced by the carcinogen 7,12-dimethyl benz[a]anthracene, were injected intraperitoneally into normal male BDF1 mice (2×10^6 /mouse). Each drug treated group and control group had ten mice. Except for the control group, one of the thiapyrylium dyes of Ex. 1 and Ex. 2 was administered intraperitoneally starting the following day in the following manner: 2 mg/kg daily for 5 days followed by 2 mg/kg twice a week. The control group of 10 mice was treated with 0.25 ml of 5% dextrose in water and was the same control group used for both Ex. 5-6. The survival rate was calculated as in the previous examples. The results were that the dye of Ex. 1 produced a T/C of 227%, and the dye of Ex. 2 produced a T/C of 263%, as shown further in FIGS. 5-6.

[5] = clonogenic, CX-1 human colon carcinoma
[6] = clonogenic, CV-1 normal monkey kidney epithelial cells
[7] = retest: different preparation or recrystallization, CX-1
[8] = retest: different preparation or recrystallization, CV-1

## COc1cccc2c1C(=O)c1c(O)c3c(c(O)c1C2=O)C[C@@](O)(C(=O)CO)C[C@@H]3O[C@H]1C[C@H](N)[C@H](O)[C@H](C)O1 [Adriamycin]
Stomach cancer
  effective response rate: 14.5%

## CN(C)c1ccc(-c2cc(-c3ccccn3)[s+]c(-c3cccs3)c2)cc1 [T-1, 4-(4-dimethylaminophenyl)-2-(2-pyridyl)-6-(2-thienyl)thiapyrylium chloride]
[1]
  Selectivity: 200
[1]; [5]
  IC50: 0.01 µg/mL
[2]; [6]
  CV-1 (normal cells IC50 value): 2.0 µg/mL
[3]
  T/C (test drug versus control, calculated based on 50% survival day): 200%
[4]
  T/C: 321%
MB49 tumor cells
  T/C: 263%

## CN(C)c1ccc(-c2cc(-c3ccccc3)[s+]c(-c3ccccn3)c2)cc1 [T-2, 4-(4-dimethylaminophenyl)-2-phenyl-6-(2-pyridyl)thiapyrylium chloride]
[1]
  Selectivity: 167
[1]; [5]
  IC50: 0.018 µg/mL
[1]; [7]
  CX-1 (colon carcinoma cells IC50 value): 0.005 µg/mL
[1]; retest
  Selectivity: 60
[2]; [6]
  IC50: 3 µg/mL
[3]
  T/C (test drug versus control, calculated based on 50% survival day): 228%
[4]
  T/C: 340%
MB49 tumor cells
  T/C: 227%

## CN(C)c1ccc(-c2cc(-c3ccccc3)[s+]c(-c3ccccn3)c2)cc1 [T-3, 4-(4-dimethylaminophenyl)-2-phenyl-6-(2-pyridyl)thiapyrylium perchlorate]
[1]
  Selectivity: 167
[1]; [5]
  CX-1 (colon carcinoma cells IC50 value): 0.015 µg/mL
[1]; [7]
  CX-1 (colon carcinoma cells IC50 value): 0.025 µg/mL
[1]; retest
  Selectivity: 100
[2]; [6]
  CV-1 (normal cells IC50 value): 2.5 µg/mL
[2]; [8]
  CV-1 (normal cells IC50 value): 2.5 µg/mL

## CN(C)c1ccc(-c2cc(-c3ccccn3)[s+]c(-c3cccs3)c2)cc1 [T-4, 4-(4-dimethylaminophenyl)-2-(2-pyridyl)-6-(2-thienyl)thiapyrylium perchlorate]
[1]
  Selectivity: 333
[1]; [7]
  IC50: 0.015 µg/mL
[1]; retest
  Selectivity: 100
[2]; [8]
  IC50: 1.5 µg/mL
[2]; [6]
  CV-1 (normal cells IC50 value): 5.0 µg/mL

## CN(C)c1ccc(-c2cc(-c3ccccc3)[s+]c(-c3ccccc3)c2)cc1 [compound 2, reference compound]
[1]
  S (selectivity value): 5.0

## CN(C)c1ccc(-c2cc(-c3cccs3)[s+]c(-c3cccs3)c2)cc1 [compound 3, 2,6-Bis(2-thienyl)-4-(4-dimethylaminophenyl)thiapyrylium perchlorate, reference compound]
[1]
  S (selectivity value): 1.0

## CN(C)c1ccc(-c2cc(-c3ccncc3)[s+]c(-c3cccs3)c2)cc1 [compound 4, 4-(4-Dimethylaminophenyl)-2-(4-pyridyl)-6-(2-thienyl)thiapyrylium perchlorate, reference compound]
[1]
  S (selectivity value): 3.3

## CN(C)c1ccc(-c2cc(-c3ccco3)[s+]c(-c3cccs3)c2)cc1 [compound 5, 4-(4-Dimethylaminophenyl)-2-(2-furyl)-6-(2-thienyl)thiapyrylium perchlorate, reference compound]
[1]
  S (selectivity value): 13.5

## CN(C)c1ccc(-c2cc(-c3ccccc3)[s+]c(-c3ccc(N(C)C)cc3)c2)cc1 [compound 6, reference compound]
[1]
  S (selectivity value): 10.0

## Cc1cc(N(CCCl)CCCl)ccc1-c1cc(-c2ccccc2)[s+]c(-c2ccccc2)c1 [compound 7, reference compound]
[1]
  S (selectivity value): < 7.5

## c1ccc(CN(Cc2ccccc2)c2ccc(-c3cc(-c4ccccc4)[s+]c(-c4ccccc4)c3)cc2)cc1 [compound 8, reference compound]
[1]
  S (selectivity value): < 7.5

## ClCCN(CCCl)c1ccc(-c2cc(-c3ccccc3)[s+]c(-c3ccccc3)c2)cc1 [compound 9, reference compound]
[1]
  S (selectivity value): < 5.0
